{
  "source": "paper PMC10221074",
  "about": "“Functional Profiling of the A-Family of Venom Peptides from the Wolf Spider Lycosa shansia” (Toxins, 2023)",
  "key": {"[1]": {"tested_on": "Pseudomonas aeruginosa DSM 50071", "experiment": "Antibacterial growth assay (OD600)", "conditions": "for Bacterial growth relative to medium, P. aeruginosa (50071), replicate 1 / Bacterial growth relative to medium, P. aeruginosa (50071), replicate 2 / Bacterial growth relative to medium, P. aeruginosa (50071), replicate 3: OD600, medium = 100, MH II broth; for Bacterial growth relative to medium, P. aeruginosa (50071), replicate 1: replicate column 1; for Bacterial growth relative to medium, P. aeruginosa (50071), replicate 2: replicate column 2; for Bacterial growth relative to medium, P. aeruginosa (50071), replicate 3: replicate column 3"}, "[2]": {"tested_on": "Escherichia coli BL21(DE3)", "experiment": "Antibacterial growth assay (OD600)", "conditions": "OD600, medium = 100, MH II broth; for Bacterial growth relative to medium, E. coli, replicate 1: replicate column 1; for Bacterial growth relative to medium, E. coli, replicate 2: replicate column 2; for Bacterial growth relative to medium, E. coli, replicate 3: replicate column 3", "experimental": "(§1) Cryo-conserved cultures of selected bacterial strains (Table 4) were transferred to Tryptic Soy Agar (TSA) plates (Carl Roth) with a sterile inoculation loop, sealed with Parafilm (BEMIS, Neenah, WI, USA), and incubated for 1–2 days at 37 °C depending on growth. Single colonies were picked and transferred into 2–3 mL of the Mueller–Hinton II (MH II) broth (BD, Heidelberg, Germany). The bacteria were cultivated overnight, subcultured on fresh medium and grown for 3–4 h before testing at 37 °C, with shaking at 180 rpm. We measured the optical density at 600 nm (OD600) of 1 mL of the bacterial suspensions in polystyrene cuvettes (SARSTED, Nümbrecht, Germany) using an Ultrospec 10 spectrophotometer (Biochrome, Cambridge, UK). We then diluted them with the MH II medium to the preferred OD600 (Table 2). The peptides were dissolved in DMSO to generate 10 mmol/L stocks and diluted with the MH II medium to 200 µM before the assay. We used 10 µg/mL (~40 µg/mL for S. epidermidis) gentamicin and colistin (Sigma-Aldrich, Taufkirchen, Germany), DMSO and the medium only as controls. The bacteria were transferred to 96-multiwell plates with a final volume of 100 µL per well (50 µL bacterial suspension, and 50 µL test peptide). The OD600 was measured at 0, 24 and 48 h using a BioTek Eon microplate reader followed by analysis with Gen5 v2.09."}, "[3]": {"tested_on": "Listeria monocytogenes DSM 20600", "experiment": "Antibacterial growth assay (OD600)", "conditions": "for Bacterial growth relative to medium, L. monocytogenes, replicate 1 / Bacterial growth relative to medium, L. monocytogenes, replicate 2 / Bacterial growth relative to medium, L. monocytogenes, replicate 3: OD600, medium = 100, MH II broth; for Bacterial growth relative to medium, L. monocytogenes, replicate 1: replicate column 1; for Bacterial growth relative to medium, L. monocytogenes, replicate 2: replicate column 2; for Bacterial growth relative to medium, L. monocytogenes, replicate 3: replicate column 3"}, "[4]": {"tested_on": "Pseudomonas aeruginosa DSM 1117", "experiment": "Antibacterial growth assay (OD600)", "conditions": "for Bacterial growth relative to medium, P. aeruginosa (1117), replicate 1 / Bacterial growth relative to medium, P. aeruginosa (1117), replicate 2 / Bacterial growth relative to medium, P. aeruginosa (1117), replicate 3: OD600, medium = 100, MH II broth; for Bacterial growth relative to medium, P. aeruginosa (1117), replicate 1: replicate column 1; for Bacterial growth relative to medium, P. aeruginosa (1117), replicate 2: replicate column 2; for Bacterial growth relative to medium, P. aeruginosa (1117), replicate 3: replicate column 3", "experimental": "as §1"}, "[5]": {"tested_on": "Micrococcus luteus DSM 20030", "experiment": "Antibacterial growth assay (OD600)", "conditions": "OD600, medium = 100, MH II broth; for Bacterial growth relative to medium, M. luteus, replicate 1: replicate column 1; for Bacterial growth relative to medium, M. luteus, replicate 2: replicate column 2; for Bacterial growth relative to medium, M. luteus, replicate 3: replicate column 3"}, "[6]": {"tested_on": "Staphylococcus epidermidis DSM 28319", "experiment": "Antibacterial growth assay (OD600)", "conditions": "for Bacterial growth relative to medium, S. epidermidis, replicate 1: replicate column 1; for Bacterial growth relative to medium, S. epidermidis, replicate 2: replicate column 2; for Bacterial growth relative to medium, S. epidermidis, replicate 3: replicate column 3"}, "[7]": {"tested_on": "Staphylococcus aureus DSM 2569", "experiment": "Antibacterial growth assay (OD600)", "conditions": "OD600, medium = 100, MH II broth; for Bacterial growth relative to medium, S. aureus, replicate 1: replicate column 1; for Bacterial growth relative to medium, S. aureus, replicate 2: replicate column 2; for Bacterial growth relative to medium, S. aureus, replicate 3: replicate column 3", "experimental": "as §1"}, "A/Hessen/1/2003 (H3N2)": {"tested_on": "A/Hessen/1/2003 (H3N2)", "assay_type": "cell-based, influenza virus"}, "A/Hamburg/05/2009 (H1N1)": {"tested_on": "A/Hamburg/05/2009 (H1N1)", "assay_type": "cell-based, influenza virus"}, "[8]": {"tested_on": "B/Malaysia/2506/2004 (B-Mal)", "assay_type": "cell-based, influenza virus"}, "[9]": {"conditions": "antibiotic control, table line says 10µg/mL (methods: ~40 µg/mL for S. epidermidis), OD600, medium = 100"}, "[10]": {"conditions": "37 °C, peptide 200 µM mixed 50 µL + 50 µL with bacteria, Figure 7: 48 h"}, "[11]": {"conditions": "OD600, medium = 100, MH II broth, 37 °C, peptide 200 µM mixed 50 µL + 50 µL with bacteria, Figure 7: 48 h"}},
  "data": [
    {"substance": "colistin [Polymyx, reference compound]", "values": [
      {"measurement": "Bacterial growth relative to medium, P. aeruginosa (50071), replicate 1", "setting": "[1]; antibiotic control 10µg/mL", "value": 5.416},
      {"measurement": "Bacterial growth relative to medium, P. aeruginosa (50071), replicate 2", "setting": "[1]; antibiotic control 10µg/mL", "value": 11.2545},
      {"measurement": "Bacterial growth relative to medium, P. aeruginosa (50071), replicate 3", "setting": "[1]; antibiotic control 10µg/mL", "value": 11.5437},
      {"measurement": "Bacterial growth relative to medium, E. coli, replicate 1", "setting": "[2]; antibiotic control 10µg/mL", "value": 15.553},
      {"measurement": "Bacterial growth relative to medium, E. coli, replicate 2", "setting": "[2]; antibiotic control 10µg/mL", "value": 16.1645},
      {"measurement": "Bacterial growth relative to medium, E. coli, replicate 3", "setting": "[2]; antibiotic control 10µg/mL", "value": 11.9401},
      {"measurement": "Bacterial growth relative to medium, L. monocytogenes, replicate 1", "setting": "[3]; antibiotic control 10µg/mL", "value": 82.3087},
      {"measurement": "Bacterial growth relative to medium, L. monocytogenes, replicate 2", "setting": "[3]; antibiotic control 10µg/mL", "value": 64.4034},
      {"measurement": "Bacterial growth relative to medium, L. monocytogenes, replicate 3", "setting": "[3]; antibiotic control 10µg/mL", "value": 78.447},
      {"measurement": "Bacterial growth relative to medium, P. aeruginosa (1117), replicate 1", "setting": "[4]; antibiotic control 10µg/mL", "value": 8.3082},
      {"measurement": "Bacterial growth relative to medium, P. aeruginosa (1117), replicate 2", "setting": "[4]; antibiotic control 10µg/mL", "value": 7.355},
      {"measurement": "Bacterial growth relative to medium, P. aeruginosa (1117), replicate 3", "setting": "[4]; antibiotic control 10µg/mL", "value": 3.543},
      {"measurement": "Bacterial growth relative to medium, M. luteus, replicate 1", "setting": "[5]; antibiotic control 10µg/mL", "value": 34.787},
      {"measurement": "Bacterial growth relative to medium, M. luteus, replicate 2", "setting": "[5]; antibiotic control 10µg/mL", "value": 53.8113},
      {"measurement": "Bacterial growth relative to medium, M. luteus, replicate 3", "setting": "[5]; antibiotic control 10µg/mL", "value": 47.1539},
      {"measurement": "Bacterial growth relative to medium, S. epidermidis, replicate 1", "setting": "[6]; [9]", "value": 77.611},
      {"measurement": "Bacterial growth relative to medium, S. epidermidis, replicate 2", "setting": "[6]; [9]", "value": 72.7124},
      {"measurement": "Bacterial growth relative to medium, S. epidermidis, replicate 3", "setting": "[6]; [9]", "value": 81.8478},
      {"measurement": "Bacterial growth relative to medium, S. aureus, replicate 1", "setting": "[7]; antibiotic control 10µg/mL", "value": 85.0041},
      {"measurement": "Bacterial growth relative to medium, S. aureus, replicate 2", "setting": "[7]; antibiotic control 10µg/mL", "value": 99.7935},
      {"measurement": "Bacterial growth relative to medium, S. aureus, replicate 3", "setting": "[7]; antibiotic control 10µg/mL", "value": 95.4465}
    ]},
    {"substance": "SLLGLLDVVKSKIGQTG [LS-AMP-A14]", "values": [
      {"measurement": "Viability of infected cells relative to aprotinin, Replicate 1", "setting": "A/Hessen/1/2003 (H3N2)", "value": 0.07143},
      {"measurement": "Viability of infected cells relative to aprotinin, Replicate 2", "setting": "A/Hessen/1/2003 (H3N2)", "value": 0.146},
      {"measurement": "Viability of infected cells relative to aprotinin, Replicate 3", "setting": "A/Hessen/1/2003 (H3N2)", "value": 0.0602},
      {"measurement": "Viability of infected cells relative to aprotinin, Replicate 4", "setting": "A/Hessen/1/2003 (H3N2); […], replicate 4 (additional internal control)", "value": 0.04395},
      {"measurement": "Viability of infected cells relative to aprotinin, Replicate 1", "setting": "A/Hamburg/05/2009 (H1N1)", "value": 0.03385},
      {"measurement": "Viability of infected cells relative to aprotinin, Replicate 2", "setting": "A/Hamburg/05/2009 (H1N1)", "value": 0.02545},
      {"measurement": "Viability of infected cells relative to aprotinin, Replicate 3", "setting": "A/Hamburg/05/2009 (H1N1)", "value": 0.02099},
      {"measurement": "Bacterial growth relative to medium, P. aeruginosa (50071), replicate 1", "setting": "[1]; [10]", "value": 100.972},
      {"measurement": "Bacterial growth relative to medium, P. aeruginosa (50071), replicate 2", "setting": "[1]; [10]", "value": 116.001},
      {"measurement": "Bacterial growth relative to medium, P. aeruginosa (50071), replicate 3", "setting": "[1]; [10]", "value": 81.6852},
      {"measurement": "Antibacterial activity (in words)", "setting": "[1]; P. aeruginosa DSM 50071, growth after 48 h", "value": "weak activity"},
      {"measurement": "Bacterial growth relative to medium, E. coli, replicate 1", "setting": "[2]; [10]", "value": 109.705},
      {"measurement": "Bacterial growth relative to medium, E. coli, replicate 2", "setting": "[2]; [10]", "value": 98.8412},
      {"measurement": "Bacterial growth relative to medium, E. coli, replicate 3", "setting": "[2]; [10]", "value": 96.3776},
      {"measurement": "Antibacterial activity (in words)", "setting": "[3]; L. monocytogenes DSM 20600, growth after 48 h", "value": "more active"},
      {"measurement": "Bacterial growth relative to medium, L. monocytogenes, replicate 1", "setting": "[3]; [10]", "value": 102.734},
      {"measurement": "Bacterial growth relative to medium, L. monocytogenes, replicate 2", "setting": "[3]; [10]", "value": 82.6703},
      {"measurement": "Bacterial growth relative to medium, L. monocytogenes, replicate 3", "setting": "[3]; [10]", "value": 49.785},
      {"measurement": "Bacterial growth relative to medium, P. aeruginosa (1117), replicate 1", "setting": "[4]; [10]", "value": 84.8429},
      {"measurement": "Bacterial growth relative to medium, P. aeruginosa (1117), replicate 2", "setting": "[4]; [10]", "value": 62.4783},
      {"measurement": "Bacterial growth relative to medium, P. aeruginosa (1117), replicate 3", "setting": "[4]; [10]", "value": 58.9547},
      {"measurement": "Antibacterial activity (in words)", "setting": "[4]; P. aeruginosa DSM 1117, growth after 48 h", "value": "weak activity"},
      {"measurement": "Bacterial growth relative to medium, M. luteus, replicate 1", "setting": "[5]; [10]", "value": 101.208},
      {"measurement": "Bacterial growth relative to medium, M. luteus, replicate 2", "setting": "[5]; [10]", "value": 114.302},
      {"measurement": "Bacterial growth relative to medium, M. luteus, replicate 3", "setting": "[5]; [10]", "value": 44.4763},
      {"measurement": "Viability of infected cells relative to aprotinin, Replicate 1", "setting": "[8]", "value": 0.05534},
      {"measurement": "Viability of infected cells relative to aprotinin, Replicate 2", "setting": "[8]", "value": 0.06456},
      {"measurement": "Viability of infected cells relative to aprotinin, Replicate 3", "setting": "[8]", "value": 0.1102},
      {"measurement": "Bacterial growth relative to medium, S. epidermidis, replicate 1", "setting": "[6]; [11]", "value": 97.145},
      {"measurement": "Bacterial growth relative to medium, S. epidermidis, replicate 2", "setting": "[6]; [11]", "value": 104.641},
      {"measurement": "Bacterial growth relative to medium, S. epidermidis, replicate 3", "setting": "[6]; [11]", "value": 74.4979},
      {"measurement": "Bacterial growth relative to medium, S. aureus, replicate 1", "setting": "[7]; [10]", "value": 81.4506},
      {"measurement": "Bacterial growth relative to medium, S. aureus, replicate 2", "setting": "[7]; [10]", "value": 83.1916},
      {"measurement": "Bacterial growth relative to medium, S. aureus, replicate 3", "setting": "[7]; [10]", "value": 66.5171}
    ]}
  ]
}
